Structures can show the parent of a compound that is named as a salt.

The test system of this assay is Acinetobacter baumannii ATCC17961. In words: Antimicrobial susceptibility testing: 90% growth inhibitory concentration (IC90) determination. Format: cell-based. As to conditions: Acinetobacter baumannii, ATCC17961, 16 h, 90% growth inhibitory concentration against Acinetobacter baumannii ATCC17961, Iso-Sensitest broth, OD 600 nm over 16 h; read-out: ATCC 17961 IC90. The gist of the method: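 Twofold serial dilutions (e.g. 10 to 0.0195 μM final) in Iso-Sensitest broth inoculated at ~5×10^5 CFU/mL, incubated at 35±2° C. OD600 read every minute for 16 h; IC90 is the concentration inhibiting 90% of growth during logarithmic phase.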
`COc1ccc(-n2cc(-c3cnc(C(=O)Nc4ccc(C(=O)N5CCN(C(=O)C6CC[N+](CC(=O)O)(CC7CNC7)CC6)CC5)c(Cl)c4)n3C)c(C(F)(F)F)n2)cn1` (centres unmarked) [Example 82, 2-[1-(azetidin-3-ylmethyl)-4-[4-[2-chloro-4-[[5-[1-(6-methoxy-3-pyridyl)-3-(trifluoromethyl)pyrazol-4-yl]-1-methyl-imidazole-2-carbonyl]amino]benzoyl]piperazine-1-carbonyl]piperidin-1-ium-1-yl]acetic acid. 1:1 2,2,2-trifluoroacetate]: the IC90 is 1220 nM. The value for `Cn1c(-c2cn(-c3ccc(N)cn3)nc2C(F)(F)F)cnc1C(=O)Nc1ccc(C(=O)N2CCN(C(=O)C3CC[N+](CC(=O)O)(CC4CNC4)CC3)CC2)c(Cl)c1` (centres unmarked) [Example 59, 2-[4-[4-[4-[[5-[1-(5-amino-2-pyridyl)-3-(trifluoromethyl)pyrazol-4-yl]-1-methyl-imidazole-2-carbonyl]amino]-2-chloro-benzoyl]piperazine-1-carbonyl]-1-(azetidin-3-ylmethyl)piperidin-1-ium-1-yl]acetic acid. 1:1 formate] was 650 nM.

In the case of `Cn1c(-c2cn(-c3ccc(NCCN)cn3)nc2C(F)(F)F)cnc1C(=O)Nc1ccc(C(=O)N2CCN(C(=O)C3CC[N+](C)(CC(=O)[O-])CC3)CC2)c(Cl)c1` (centres unmarked) [Example 201, 2-[4-[4-[4-[[5-[1-[5-(2-aminoethylamino)-2-pyridyl]-3-(trifluoromethyl)pyrazol-4-yl]-1-methyl-imidazole-2-carbonyl]amino]-2-chloro-benzoyl]piperazine-1-carbonyl]-1-methyl-piperidin-1-ium-1-yl]acetate], the IC90 is 682 nM. The result for `Cn1c(-c2cn(-c3ccc(N)cn3)nc2C(F)(F)F)cnc1C(=O)Nc1ccc(C(=O)N2CCN(C(=O)CCC[N+](C)(CCCN)CC(=O)O)CC2)c(Cl)c1` (racemic) [Example 65, rac-3-aminopropyl-[4-[4-[4-[[5-[1-(5-amino-2-pyridyl)-3-(trifluoromethyl)pyrazol-4-yl]-1-methyl-imidazole-2-carbonyl]amino]-2-chloro-benzoyl]piperazino]-4-keto-butyl]-(carboxymethyl)-methyl-ammonium. 1:1 2,2,2-trifluoroacetate] reads 720 nM. The value for `CN(C)c1ccc(-n2cc(-c3cnc(C(=O)Nc4ccc(C(=O)N5CCN(C(=O)C6CC[N+](CC(=O)O)(CC7CNC7)CC6)CC5)c(Cl)c4)n3C)c(C(F)(F)F)n2)cn1` (centres unmarked) [Example 49, 2-[1-(azetidin-3-ylmethyl)-4-[4-[2-chloro-4-[[5-[1-[6-(dimethylamino)-3-pyridyl]-3-(trifluoromethyl)pyrazol-4-yl]-1-methyl-imidazole-2-carbonyl]amino]benzoyl]piperazine-1-carbonyl]piperidin-1-ium-1-yl]acetic acid. 1:1 2,2,2-trifluoroacetate] was 520 nM. The result for `Cn1c(-c2cn(-c3ccc4[nH]c([C@H](O)CO)cc4n3)nc2C(F)(F)F)cnc1C(=O)Nc1ccc(C(=O)N2CCN(C(=O)[C@H]3CC[N@+](CC(=O)O)(CC4CNC4)CC3)CC2)c(Cl)c1` [Example 105, cis-2-[1-(azetidin-3-ylmethyl)-4-[4-[2-chloro-4-[[5-[1-[2-[(1S)-1,2-dihydroxyethyl]-1H-pyrrolo[3,2-b]pyridin-5-yl]-3-(trifluoromethyl)pyrazol-4-yl]-1-methyl-imidazole-2-carbonyl]amino]benzoyl]piperazine-1-carbonyl]piperidin-1-ium-1-yl]acetic acid;2,2,2-trifluoroacetate] reads 525 nM. For the compound `Cn1c(-c2cn(-c3ccc4[nH]cnc4n3)nc2C(F)(F)F)cnc1C(=O)Nc1ccc(C(=O)N2CCN(C(=O)[C@H]3CC[N@+](CC(=O)O)(CC4CNC4)CC3)CC2)c(Cl)c1` [Example 55, cis-2-[1-(azetidin-3-ylmethyl)-4-[4-[2-chloro-4-[[5-[1-(1H-imidazo[4,5-b]pyridin-5-yl)-3-(trifluoromethyl)pyrazol-4-yl]-1-methyl-imidazole-2-carbonyl]amino]benzoyl]piperazine-1-carbonyl]piperidin-1-ium-1-yl]acetic acid. 1:1 2,2,2-trifluoroacetate], the IC90 stood at 550 nM. The value for `Cn1c(-c2cn(-c3ccc(N)cc3F)nc2C(F)(F)F)cnc1C(=O)Nc1ccc(C(=O)N2CCN(C(=O)C3CC[N+](CCCC(=O)O)(CC4CNC4)CC3)CC2)c(Cl)c1` (centres unmarked) [Example 181, 4-[4-[4-[4-[[5-[1-(4-amino-2-fluoro-phenyl)-3-(trifluoromethyl)pyrazol-4-yl]-1-methyl-imidazole-2-carbonyl]amino]-2-chloro-benzoyl]piperazine-1-carbonyl]-1-(azetidin-3-ylmethyl)piperidin-1-ium-1-yl]butanoic acid;formate] was 244 nM. The value for `Cn1c(-c2cn(-c3ccc(N)cn3)nc2C(F)(F)F)cnc1C(=O)Nc1ccc(C(=O)N2CCN(C(=O)CCC[N+](CCCN)(CCCN)CC(=O)O)CC2)c(Cl)c1` [Example 35, bis(3-aminopropyl)-[4-[4-[4-[[5-[1-(5-amino-2-pyridyl)-3-(trifluoromethyl)pyrazol-4-yl]-1-methyl-imidazole-2-carbonyl]amino]-2-chloro-benzoyl]piperazino]-4-keto-butyl]-(carboxymethyl)ammonium. 1:1 2,2,2-trifluoroacetic acid. 1:1 2,2,2-trifluoroacetate] was 400 nM. The result for `Cc1cc(NC(=O)c2ncc(-c3cn(-c4ccc5[nH]c(CO)cc5n4)nc3C(F)(F)F)n2C)ccc1C(=O)N1CCN(C(=O)[C@H]2CC[N@+](CC(=O)O)(CC3CNC3)CC2)CC1` [Example 153, cis-2-[1-(azetidin-3-ylmethyl)-4-[4-[2-methyl-4-[[1-methyl-5-[1-(2-methylol-1H-pyrrolo[3,2-b]pyridin-5-yl)-3-(trifluoromethyl)pyrazol-4-yl]imidazole-2-carbonyl]amino]benzoyl]piperazine-1-carbonyl]piperidin-1-ium-1-yl]acetic acid. 1:1 2,2,2-trifluoroacetate] reads 384 nM; that for `CNC(=O)c1c[nH]c2cc(-n3cc(-c4cnc(C(=O)Nc5ccc(C(=O)N6CCN(C(=O)[C@H]7CC[N@+](CC(=O)O)(CC8CNC8)CC7)CC6)c(Cl)c5)n4C)c(C(F)(F)F)n3)ncc12` [Example 156, cis-2-[1-(azetidin-3-ylmethyl)-4-[4-[2-chloro-4-[[1-methyl-5-[1-[3-(methylcarbamoyl)-1H-pyrrolo[3,2-c]pyridin-6-yl]-3-(trifluoromethyl)pyrazol-4-yl]imidazole-2-carbonyl]amino]benzoyl]piperazine-1-carbonyl]piperidin-1-ium-1-yl]acetic acid. 1:1 2,2,2-trifluoroacetate], 156 nM. Take `CN(C)c1ccc(-n2cc(-c3cnc(C(=O)Nc4ccc(C(=O)N5CCN(C(=O)C6CC[N+](CC(=O)O)(CC7CNC7)CC6)CC5)c(Cl)c4)n3C)c(C(F)(F)F)n2)cc1` (centres unmarked) [Example 46, 2-[1-(azetidin-3-ylmethyl)-4-[4-[2-chloro-4-[[5-[1-[4-(dimethylamino)phenyl]-3-(trifluoromethyl)pyrazol-4-yl]-1-methyl-imidazole-2-carbonyl]amino]benzoyl]piperazine-1-carbonyl]piperidin-1-ium-1-yl]acetic acid. 1:1 formate]: the IC90 stood at 500 nM.

Consider `Cn1c(-c2cn(-c3ccc(NCCOC(F)F)cc3F)nc2C(F)(F)F)cnc1C(=O)Nc1ccc(C(=O)N2CCN(C(=O)[C@H]3CC[N@+](CC(=O)O)(CC4CNC4)CC3)CC2)c(Cl)c1` [Example 126, cis-2-[1-(azetidin-3-ylmethyl)-4-[4-[2-chloro-4-[[5-[1-[4-[2-(difluoromethoxy)ethylamino]-2-fluoro-phenyl]-3-(trifluoromethyl)pyrazol-4-yl]-1-methyl-imidazole-2-carbonyl]amino]benzoyl]piperazine-1-carbonyl]piperidin-1-ium-1-yl]acetic acid;formate], for which the IC90 is 176 nM. The result for `CN(C)c1ccc(-n2cc(-c3cnc(C(=O)Nc4ccc(C(=O)N5CCN(C(=O)C6CC[N+](CC(=O)O)(CC7CNC7)CC6)CC5)c(Cl)c4)n3C)c(C(F)(F)F)n2)nc1` (centres unmarked) [Example 45, 2-[1-(azetidin-3-ylmethyl)-4-[4-[2-chloro-4-[[5-[1-[5-(dimethylamino)-2-pyridyl]-3-(trifluoromethyl)pyrazol-4-yl]-1-methyl-imidazole-2-carbonyl]amino]benzoyl]piperazine-1-carbonyl]piperidin-1-ium-1-yl]acetic acid. 1:1 formate] reads 500 nM.
